Measurements: patent US10682352B2, “Compound having mutant IDH inhibitory activity, preparation method and use thereof” (SHANGHAI HAIHE PHARMACEUTICAL CO., LTD., priority 2016, dated 2020)
Read-outs that look alike come from different tables or passages of the source.

What was measured:
[1] = system: fibrosarcoma cell line HT1080; assay: 2HG inhibition assay on fibrosarcoma cell line HT1080 (LC-MS/MS); format: cell-based, Human; conditions: HT-1080 cells, 48 h incubation, read-out: HT1080 2HG Inhibitory IC50
Description: In this experiment, the inhibitory activity of the compounds of the present invention against the 2HG concentration level of fibrosarcoma cell line HT1080 was measured by the following method.
Different concentrations of compounds were added and incubated for 48 h. HT-1080 cells were trypsinized and collected, and centrifuged at 500 g for 5 min. The supernatant was discarded, and the cells were resuspended in 1 ml of PBS and the number of cells per sample was counting by a counter (Beckman coulter Z2, Beckman) and adjusted to be the same. After centrifuged at 500 g for 5 min, the supernatant was discarded, and the cell pellet was stored in a refrigerator at −80° C. for 2HG detection.
Sample Treatment: an ice acetonitrile solution containing 200 μL of verapamil (internal standard) was added to sample tubes respectively, vortexed for 1 min, and placed in a refrigerator at 4° C. for 20 min to lyse the cells. 100 μL of sample was taken, another 100 μL of lysate was taken in a 96-well plate and dried with a nitrogen blower, and 100 μL of water was added and vortexed to be uniform.
1. Derivatization: 100 μL of o-benzylhydroxylamine hydrochloride derivatization reagent was added and shaken on a shaker for 1 h to complete the derivatization reaction.
2. Solution extraction: 300 μL of ethyl acetate was added separately, shaken for 20 min, centrifuged at 1900 rpm for 5 min, and placed in a refrigerator at −70° C. for 40 min. All the ethyl acetate was taken up to another sample plate, and dried with a nitrogen blower. 150 μL MEOH/H2O (v/v, 1/1) was added for reconstitution.
3. Bioanalysis: All of the above samples were analyzed by LC-MS/MS (Waters ACQUITY H-Class System, Waters/AB6500, Sciex) after centrifuged at 4000 rpm for 10 min.
The inhibition rate of the sample was obtained by the following formula: […]
IC50 values were calculated using GraphPad Prism software.

IDH1 R132H = IDH1 R132H (Homo sapiens (Human), UniProt O75874, R132H); assay: Effect on the enzyme activity of IDH1 at the molecular level (NADPH consumption, diaphorase/resazurin); format: biochemical; conditions: α-KG 1 mM, NADPH 4 μM, 60 min room temperature
IDH1 R132H, sequence (O75874 whole entry R132H): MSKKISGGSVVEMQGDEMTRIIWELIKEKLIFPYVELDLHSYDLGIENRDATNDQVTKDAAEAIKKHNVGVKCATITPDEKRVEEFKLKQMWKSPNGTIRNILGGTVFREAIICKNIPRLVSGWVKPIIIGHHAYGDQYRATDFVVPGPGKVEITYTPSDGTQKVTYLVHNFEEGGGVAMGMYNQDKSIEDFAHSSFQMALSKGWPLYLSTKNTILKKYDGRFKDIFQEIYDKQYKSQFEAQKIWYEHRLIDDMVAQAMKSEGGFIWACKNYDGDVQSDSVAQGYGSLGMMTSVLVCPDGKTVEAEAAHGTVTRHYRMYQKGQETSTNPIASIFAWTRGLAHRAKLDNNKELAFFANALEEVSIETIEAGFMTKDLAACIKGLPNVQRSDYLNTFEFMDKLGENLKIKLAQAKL
Description: The enzyme used in the experiment was purchased from cayman Co.
The substrates α-KG, NADPH and Diaphorase were purchased from Sigma; Resazurin was purchased from J&K; and the remaining reagents were purchased from Sinopharm Chemical Reagent Co., Ltd.
Compound preparation: Compound 12000 g was centrifuged for 5 min, DMSO was added to prepare 10 mM, which was vortexed, then ultrasonic treatment for 10 minutes, and stored at −40° C. The stock solution was diluted firstly with DMSO to a 10 μM solution when tested and then gradient-diluted for 3 times to a different test concentration.
Test method: The enzyme activity of IDH1 to convert α-KG to 2HG was measured by the consumption of NADPH. After the enzymatic reaction was completed, a catalytic excess of diaphorase and reazurin were added, and the resulting fluorescent signal could reflect the amount of remaining NADPH. […] IC50 values were calculated using GraphPad Prism software.

Row | IC50 (IDH1 R132H) | IC50 ([1]; Homo sapiens, HT-1080, 48 h) | SMILES | other results
1 | – | 12.9 nM | CC(C)[C@H]1CN(C)C(=O)N1c1ccnc(N[C@@H](C)c2cn(-c3ccc(Cl)cc3)cn2)n1 [Compound 17, (S)-3-(2-(((S)-1-(1-(4-chlorophenyl)-1H-imidazol-4-yl)ethyl)amino)pyrimidin-4-yl)-4-isopropyl-1-methylimidazolidine-2-one] | –
2 | – | 27 nM | CC(C)[C@H]1CN(C)C(=O)N1c1ccnc(NC2(c3cn(-c4cc(Cl)cc(Cl)c4)cn3)CC2)n1 [Compound 26, (S)-3-(2-((1-(1-(3,5-dichlorophenyl)-1H-imidazol-4-yl)cyclopropyl)amino)pyrimidin-4-yl)-4-isopropyl-1-methylimidazolidine-2-one] | –
3 | – | 15 nM | CC(C)c1cccc(-n2cnc(C3(Nc4nccc(N5C(=O)N(C)C[C@@H]5C(C)C)n4)CC3)c2)c1 [Compound 30, (S)-3-(2-((1-(1-(3-isopropylphenyl)-1H-imidazol-4-yl)cyclopropyl)amino)pyrimidin-4-yl)-4-isopropyl-1-methylimidazolidne-2-one] | –
4 | – | 16 nM | CC(C)[C@H]1CN(C)C(=O)N1c1ccnc(NC2(c3cn(-c4cccc(C5CC5)c4)cn3)CC2)n1 [Compound 34] | –
5 | – | 14 nM | COc1cc(Cl)cc(-n2cnc(C3(Nc4nccc(N5C(=O)N(C)C[C@@H]5C(C)C)n4)CC3)c2)c1 [Compound 38, (S)-3-(2-((1-(1-(3-chloro-5-methoxyphenyl)-1H-imidazol-4-yl)cyclopropyl)amino)pyrimidin-4-yl)-4-isopropyl-1-methylimidazolidine-2-one] | –
6 | 100 to 1000 nM | – | CC(C)[C@H]1CN(C)C(=O)N1c1ccnc(NC2(c3cn(-c4cccc(C5CC5)c4)cn3)CCC2)n1 [Compound 71, (S)-3-(2-((1-(1-(3-cyclopropylphenyl)-1H-imidazol-4-yl)cyclobutyl)amino)pyrimidin-4-yl)-4-isopropyl-1-methylimidazolidine-2-one] | –
7 | 100 to 1000 nM | – | CC(C)[C@H]1CN(C)C(=O)N1c1ccnc(NC(C)(C)c2cn(-c3ccc(Cl)cc3)cn2)n1 [Compound 72, (S)-3-(2-((2-(1-(4-chlorophenyl)-1H-imidazol-4-yl)prop-2-yl)amino)pyrimidin-4-yl)-4-isopropyl-1-methylimidazolidine-2-one] | –
8 | 100 to 1000 nM | – | CC(C)[C@H]1CN(C2CC2)C(=O)N1c1ccnc(N[C@@H](C)c2cn(-c3ccc(Cl)cc3)cn2)n1 [Compound 73, (S)-3-(2-(((S)-1-(1-(4-chlorophenyl)-1H-imidazol-4-yl)ethyl)amino)pyrimidin-4-yl)-4-isopropyl-1-cyclopropylimidazolidine-2-one] | –
9 | 100 to 1000 nM | – | CC(C)[C@H]1CN(C)C(=O)N1c1ccnc(N[C@@H](C)c2cn(C3CCC(F)(F)CC3)cn2)n1 [Compound 75, (S)-3-(2-(((S)-1-(1-(4,4-difluorocyclohexyl)-1H-imidazol-4-yl)ethyl)amino)pyrimidin-4-yl)-4-isopropyl-1-methylimidazolidine-2-one] | –
10 | 100 to 1000 nM | – | CC(C)[C@H]1CN(C)C(=O)N1c1ccnc(NC2(c3ccc(-c4ccnc(C(F)(F)F)c4)cn3)CC2)n1 [Compound 113] | –

The next lines start with the molecule.

Row | SMILES | IC50 (IDH1 R132H) | IC50 ([1]; Homo sapiens, HT-1080, 48 h) | other results
11 | CC(C)[C@H]1C(C)NC(=O)N1c1ccnc(N[C@@H](C)c2cn(-c3ccc(Cl)cc3)cn2)n1 (single isomer, unassigned) [Compound 86] | < 100 nM | – | IC50 [1]: 66 nM
12 | CC(C)[C@H]1C(C)NC(=O)N1c1ccnc(N[C@@H](C)c2cn(-c3ccc(Cl)cc3)cn2)n1 (single isomer, unassigned) [Compound 87] | < 100 nM | – | IC50 [1]: 29 nM
13 | CC(C)[C@H]1C(C)N(C)C(=O)N1c1ccnc(N[C@@H](C)c2cn(-c3ccc(Cl)cc3)cn2)n1 (single isomer, unassigned) [Compound 90] | < 100 nM | 24 nM | –
14 | CC(C)[C@H]1C(C)N(C)C(=O)N1c1ccnc(N[C@@H](C)c2cn(-c3ccc(Cl)cc3)cn2)n1 (single isomer, unassigned) [Compound 91] | < 100 nM | – | IC50 [1]: 12 nM
15 | CC(C)[C@H]1C(C)NC(=O)N1c1ccnc(N[C@@H](C)c2cn(-c3ccc(C(F)(F)F)cc3)cn2)n1 (single isomer, unassigned) [Compound 92] | < 100 nM | 33 nM | –
16 | CC(C)[C@H]1C(C)NC(=O)N1c1ccnc(N[C@@H](C)c2cn(-c3ccc(C(F)(F)F)cc3)cn2)n1 (single isomer, unassigned) [Compound 93] | < 100 nM | – | IC50 [1]: 34.5 nM
17 | CC(C)[C@H]1C(C)N(C)C(=O)N1c1ccnc(N[C@@H](C)c2cn(-c3ccc(C(F)(F)F)cc3)cn2)n1 (single isomer, unassigned) [Compound 94] | < 100 nM | < 10 nM | –
18 | CC(C)[C@H]1C(C)N(C)C(=O)N1c1ccnc(N[C@@H](C)c2cn(-c3ccc(C(F)(F)F)cc3)cn2)n1 (single isomer, unassigned) [Compound 95] | < 100 nM | – | IC50 [1]: < 10 nM
19 | N#Cc1ccnc(N2C(=O)CC[C@H]2C(=O)N(c2cncc(F)c2)[C@H](C(=O)NC2CC(F)(F)C2)c2ccccc2Cl)c1 [AG120, reference compound] | – | – | IC50 ([1]; Homo sapiens): 30 nM
20 | CCN1C[C@H](C(C)C)N(c2ccnc(N[C@@H](C)c3cn(-c4ccc(Cl)cc4)cn3)n2)C1=O [Compound 74, (S)-3-(2-(((S)-1-(1-(4-chlorophenyl) 1H-imidazol-4-yl)ethyl)amino)pyrimidin-4-yl)-1-ethyl-4-isopropylimidazolidine-2-one] | 100 to 1000 nM | – | –
21 | Cc1cc(N2C(=O)N(C)C[C@@H]2C2CC2)nc(N[C@@H](C)c2cn(-c3ccc(Cl)cc3)cn2)n1 [Compound 79, (S)-3-(2-(((S)-1-(1-(4-chlorophenyl)-1H-imidazol-4-yl)ethyl)amino)-6-methylpyrimidin-4-yl) cyclopropyl-1-methylimidazolidine-2-one] | 100 to 1000 nM | – | –
22 | C[C@H](Nc1nccc(N2C(=O)N(C)C[C@@H]2[C@@H](C)O)n1)c1cn(-c2ccc(Cl)cc2)cn1 [Compound 81] | 100 to 1000 nM | – | –
23 | [2H]C1([2H])NC(=O)N(c2ccnc(N[C@@H](C)c3cn(-c4ccc(C(F)(F)F)cc4)cn3)n2)[C@H]1C(C)C [Compound 83, (S)-1-(2-(((S)-1-(1-(4-(trifluoromethyl)phenyl)-1H-imidazol-4-yl)ethyl)amino)pyrimidin-4-yl)-4,4-dideutero-5-isopropylimidazolidine-2-one] | – | 10 nM | –
24 | [2H]C([2H])([2H])N1C(=O)N(c2ccnc(N[C@@H](C)c3cn(-c4ccc(Cl)cc4)cn3)n2)[C@@H](C(C)C)C1([2H])[2H] [Compound 89, (S)-3-(2-(((S)-1-(1-(4-chlorophenyl)-1H-imidazol-4-yl)ethyl)amino)pyrimidin-4-yl)-5,5-dideutero-4-isopropyl-1-deuteromethylimidazolidine-2-one] | – | 39 nM | –
25 | CC(C)[C@@H]1N(c2ccnc(N[C@@H](C)c3cn(-c4ccc(Cl)cc4)cn3)n2)C(=O)NC12CC2 [Compound 99, (S)-6-(2-(((S)-1-(1-(4-chlorophenyl)-1H-imidazol-4-yl)ethyl)amino)pyrimidin-4-yl)-7-isopropyl-4,6-diazaspiro[2.4] hept-5-one] | 100 to 1000 nM | – | –
26 | CC(C)[C@@H]1N(c2ccnc(N[C@@H](C)c3cn(-c4ccc(C(F)(F)F)cc4)cn3)n2)C(=O)NC1(C)C [Compound 101] | – | 20 nM | –
27 | CC(C)[C@@H]1N(c2ccnc(N[C@@H](C)c3cn(-c4ccc(C(F)(F)F)cc4)cn3)n2)C(=O)N(C)C12CC2 [Compound 103, (S)-7-isopropyl-4-methyl-6-(2-(((S)-1-(1-(4-(trifluoromethyl)phenyl)-1H-imidazole-4-yl) Ethyl)amino)-4-yl)-4,6-diazaspiro[2.4]hept-5-one] | 100 to 1000 nM | – | –
28 | [2H]C1([2H])[C@H](C(C)C)N(c2ccnc(N[C@@H](C)c3cc(C)c(-c4ccnc(C(F)(F)F)c4)cn3)n2)C(=O)N1C [Compound 109] | 100 to 1000 nM | – | –
